# Experimental data reported in patent US10093664B2, “Bicyclo[1.1.1]pentane inhibitors of dual leucine zipper (DLK) kinase for the treatment of disease” (priority 2016, dated 2018).
# Read-outs that look alike come from different tables or passages of the source.
# Tests used:
# [1] = biological target: T1, human DLK (Homo sapiens (Human), UniProt Q12852); experiment: cell-based; details: p-cJun (Ser63)
# Description: HEK293 cells stably transfected with a Dox-inducible human DLK were plated into a 384-well plate in 20 μl (40,000 cells/well) of DMEM medium (without phenol red) containing 10% fetal bovine serum, 1.5 μg/ml doxycycline and 1 μg/ml puromycin. The cells as negative control were grown in the absence of doxycycline. The plate was incubated at 37° C., 5% CO2 for 20 h, before DMSO (control) or compounds diluted in medium were added. The cells were incubated at 37° C. for an additional 5 h, followed by lysis and the addition detection antibodies from p-cJun (Ser63) cellular assay kit (Cisbio) per manufacturer protocol. The standard dose response curves were fitted by Genedata Screener software using the variable-slope model: Signal=Signalnegative control+(SignalDMSO control−Signalnegative control)/(1+(IC50/Dose)^Hill slope). Only signal and dose in the equation were treated as known values.
# [2] = biological target: T1, human DLK; experiment: biochemical; type: binding
# Description: The DLK dissociation constants (Kd) have been determined in the KINOMEscan KdELECT Service at DiscoveRx.
# A fusion protein of full length of human DLK (amino acids 1-859) and the DNA binding domain of NFkB was expressed in transiently transfected HEK293 cells. From these HEK 293 cells, extracts were prepared in M-PER extraction buffer (Pierce) in the presence of Protease Inhibitor Cocktail Complete (Roche) and Phosphatase Inhibitor Cocktail Set II (Merck) per manufacturers' instructions. The DLK fusion protein was labeled with a chimeric double-stranded DNA tag containing the NFkB binding site (5′-[sequence]-3′) fused to an amplicon for qPCR readout, which was added directly to the expression extract (the final concentration of DNA-tag in the binding reaction is 0.1 nM).
# The liganded beads were blocked with excess biotin and washed with blocking buffer (SeaBlock (Pierce), 1% BSA, 0.05% Tween 20, 1 mM DTT) to remove unbound ligand and to reduce nonspecific binding.
# Extracts were used directly in binding assays without any enzyme purification steps at a ≥10,000-fold overall stock dilution (final DNA-tagged enzyme concentration <0.1 nM). Extracts were loaded with DNA-tag and diluted into the binding reaction in a two step process. First extracts were diluted 1:100 in 1× binding buffer (PBS/0.05% Tween 20/10 mM DTT/0.1% BSA/2 μg/ml sonicated salmon sperm DNA) containing 10 nM DNA-tag. This dilution was allowed to equilibrate at room temperature for 15 minutes and then subsequently diluted 1:100 in 1× binding buffer. Test compounds were prepared as 111× stocks in 100% DMSO. Kds were determined using an 11-point 3-fold compound dilution series with three DMSO control points. […] The compounds were then diluted directly into the assays such that the final concentration of DMSO was 0.9%. All reactions performed in polypropylene 384-well plates. Each was a final volume of 0.02 mL. Assays were incubated with shaking for 1 hour at room temperature. Then the beads were pelleted and washed with wash buffer (1×PBS, 0.05% Tween 20) to remove displaced kinase and test compound. […] The kinase concentration in the eluates was measured by qPCR. qPCR reactions were assembled by adding 2.5 μL of kinase eluate to 7.5 μL of qPCR master mix containing 0.15 μM amplicon primers and 0.15 μM amplicon probe. The qPCR protocol consisted of a 10 minute hot start at 95° C., followed by 35 cycles of 95° C. for 15 seconds, 60° C. for 1 minute.
# Test compounds were prepared as 11× stocks in 100% DMSO. Kds were determined using an 11-point 3-fold compound dilution series with three DMSO control points. […] The compounds were then diluted directly into the assays such that the final concentration of DMSO was 0.9%. The Kds were determined using a compound top concentration of 30,000 nM. Kd measurements were performed in duplicate.
# Binding constants (Kds) were calculated with a standard dose-response curve using the Hill equation:
# The Hill Slope was set to −1.
# [3] = Table 2b (global), additional assay runs on multiple batches, includes Table 2a data in the averaging, HEK293, read-out: Cell IC50
# [4] = Table 2b DLK activity (global), read-out: Kd
SMILES,"IC50 [1, 3]","Kd [2, 4]",Kd ([2]; read-out: Avg DLK Kd),"IC50 ([1]; Table 2a, HEK293 cells, Dox-inducible human DLK, 5 h compound, read-out: Avg Phospho-cJun Cell IC50)"
"Nc1ncc(-c2cn(C34CC(C3)C4)c([C@H](O)C(F)(F)F)n2)cc1C(F)(F)F (single isomer, unassigned) [Example 6a]",745 nM,–,–,–
"Nc1ncc(-c2cn(C34CC(C3)C4)c([C@@H](O)C(F)(F)F)n2)cc1C(F)(F)F (single isomer, unassigned) [Example 6b]",38.7 nM,0.74 nM,–,–
"Nc1ncc(-c2cn(C34CC(N5CCOCC5)(C3)C4)c([C@H](O)C(F)(F)F)n2)cc1OC(F)(F)F (single isomer, unassigned) [Example 8a]",24.8 nM,0.36 nM,–,–
"Nc1ncc(-c2cn(C34CC(N5CCOCC5)(C3)C4)c([C@@H](O)C(F)(F)F)n2)cc1OC(F)(F)F (single isomer, unassigned) [Example 8b]",284 nM,–,–,–
"C#CCN1CCN(C23CC(n4cc(-c5cnc(N)c(OC(F)(F)F)c5)nc4[C@@H](O)C(C)C)(C2)C3)CC1 (single isomer, unassigned) [Example 9a]",20.2 nM,–,–,–
"C#CCN1CCN(C23CC(n4cc(-c5cnc(N)c(OC(F)(F)F)c5)nc4[C@H](O)C(C)C)(C2)C3)CC1 (single isomer, unassigned) [Example 9b]",684 nM,–,–,–
"Nc1ncc(-c2cn(C34CC(N5CCOCC5)(C3)C4)c(C(O)C(F)(F)F)n2)cc1C(F)(F)F (single isomer, unassigned) [Example 69a, 1-(4-(6-amino-5-(trifluoromethyl)pyridin-3-yl)-1-(3-morpholinobicyclo[1.1.1]pentan-1-yl)-1H-imidazol-2-yl)-2,2,2-trifluoroethan-1-ol]",36.7 nM,0.36 nM,–,–
"Nc1ncc(-c2cn(C34CC(N5CCOCC5)(C3)C4)c(C(O)C(F)(F)F)n2)cc1C(F)(F)F (single isomer, unassigned) [Example 69b, 1-(4-(6-amino-5-(trifluoromethyl)pyridin-3-yl)-1-(3-morpholinobicyclo[1.1.1]pentan-1-yl)-1H-imidazol-2-yl)-2,2,2-trifluoroethan-1-ol]",722 nM,–,–,–
Nc1ncc(-c2cn(C34CC(N5CCOCC5)(C3)C4)c(C3CC3)n2)cc1C(F)(F)F [Example 4],400 nM,8.3 nM,13 nM,366 nM
"CCCN1CCN(C23CC(n4cc(-c5cnc(N)c(OC(F)(F)F)c5)nc4[C@@H](O)C(C)C)(C2)C3)CC1 [Example 10, (S)-1-(4-(6-amino-5-(trifluoromethoxy)pyridin-3-yl)-1-(3-(4-(propyl)piperazin-1-yl)bicyclo[1.1.1]pentan-1-yl)-1H-imidazol-2-yl)-2-methylpropan-1-ol]",13.9 nM,0.31 nM,–,–
"Nc1ncc(-c2cn(C34CC(N5CCS(=O)(=O)CC5)(C3)C4)c(C3CC3)n2)cc1OC(F)(F)F [Example 13, 4-(3-(4-(6-amino-5-(trifluoromethoxy)pyridin-3-yl)-2-cyclopropyl-1H-imidazol-1-yl)bicyclo[1.1.1]pentan-1-yl)thiomorpholine 1,1-dioxide]",317 nM,32 nM,–,–
"Nc1ncc(-c2cn(C34CC(N5CCN(CC(F)(F)F)CC5)(C3)C4)c(C3CC3)n2)cc1OC(F)(F)F [Example 15, 5-(2-cyclopropyl-1-(3-(4-(2,2,2-trifluoroethyl)piperazin-1-yl)bicyclo[1.1.1]pentan-1-yl)-1H-imidazol-4-yl)-3-(trifluoromethoxy)pyridin-2-amine]",540 nM,18 nM,–,–
"CS(=O)(=O)N1CCN(C23CC(n4cc(-c5cnc(N)c(OC(F)(F)F)c5)nc4C4CC4)(C2)C3)CC1 [Example 16, 5-(2-cyclopropyl-1-(3-(4-(methylsulfonyl)piperazin-1-yl)bicyclo[1.1.1]pentan-1-yl)-1H-imidazol-4-yl)-3-(trifluoromethoxy)pyridin-2-amine]",457 nM,24 nM,–,–
"Nc1ncc(-c2cn(C34CC(N5CCN(CCF)CC5)(C3)C4)c(C3CC3)n2)cc1OC(F)(F)F [Example 17, 5-(2-cyclopropyl-1-(3-(4-(2-fluoroethyl)piperazin-1-yl)bicyclo[1.1.1]pentan-1-yl)-1H-imidazol-4-yl)-3-(trifluoromethoxy)pyridin-2-amine]",281 nM,6.9 nM,–,–
"FC(F)(F)c1c[nH]c2ncc(-c3cn(C45CC(N6CCOCC6)(C4)C5)c(C4CC4)n3)cc12 [Example 18, 4-(3-(2-cyclopropyl-4-(3-(trifluoromethyl)-1H-pyrrolo[2,3-b]pyridin-5-yl)-1H-imidazol-1-yl)bicyclo[1.1.1]pentan-1-yl)morpholine]",155 nM,1.9 nM,–,–
"Nc1ncc(-c2cn(C34CC(N5CCCCC5)(C3)C4)c(C3CC3)n2)cc1OC(F)(F)F [Example 19, 5-(2-cyclopropyl-1-(3-(piperidin-1-yl)bicyclo[1.1.1]pentan-1-yl)-1H-imidazol-4-yl)-3-(trifluoromethoxy)pyridin-2-amine]",600 nM,14 nM,–,–
"c1cc2ncc(-c3cn(C45CC(N6CCOCC6)(C4)C5)c(C4CC4)n3)cc2[nH]1 [Example 20, 4-(3-(2-cyclopropyl-4-(1H-pyrrolo[3,2-b]pyridin-6-yl)-1H-imidazol-1-yl)bicyclo[1.1.1]pentan-1-yl)morpholine]",12000 nM,7500 nM,–,–
"FCCn1ccc2ncc(-c3cn(C45CC(N6CCOCC6)(C4)C5)c(C4CC4)n3)cc21 [Example 21, 4-(3-(2-cyclopropyl-4-(1-(2-fluoroethyl)-H-pyrrolo[3,2-b]pyridin-6-yl)-H-imidazol-1-yl)bicyclo[1.1.1]pentan-1-yl)morpholine, bis(2,2,2-trifluoroacetate)]",5870 nM,330 nM,–,–
"CN1CCN(C23CC(n4cc(-c5cnc(N)c(OC(F)(F)F)c5)nc4C4CC4)(C2)C3)CC1=O [Example 22, 4-(3-(4-(6-amino-5-(trifluoromethoxy)pyridin-3-yl)-2-cyclopropyl-1H-imidazol-1-yl)bicyclo[1.1.1]pentan-1-yl)-1-methylpiperazin-2-one]",404 nM,9.7 nM,–,–
"CN1CCN(C23CC(n4cc(-c5cnc(N)c(OC(F)(F)F)c5)nc4C4CC4)(C2)C3)C(=O)C1 [Example 23, 1-(3-(4-(6-amino-5-(trifluoromethoxy)pyridin-3-yl)-2-cyclopropyl-1H-imidazol-1-yl)bicyclo[1.1.1]pentan-1-yl)-4-methylpiperazin-2-one]",471 nM,17 nM,–,–
"COCCN(C)C12CC(n3cc(-c4cnc(N)c(OC(F)(F)F)c4)nc3C3CC3)(C1)C2 [Example 24, 5-(2-cyclopropyl-1-(3-((2-methoxyethyl)(methyl)amino)bicyo[1.1.1]pentan-1-yl)-1H-imidazol-4-yl)-3-(trifluoromethoxy)pyridin-2-amine]",553 nM,6.8 nM,–,–
"COCCN(CCOC)C12CC(n3cc(-c4cnc(N)c(OC(F)(F)F)c4)nc3C3CC3)(C1)C2 [Example 25, 5-(1-(3-(bis(2-methoxyethyl)amino)bicyclo[1.1.1]pentan-1-yl)-2-cyclopropyl-1H-imidazol-4-yl)-3-(trifluoromethoxy)pyridin-2-amine]",389 nM,6.4 nM,–,–
"Nc1ncc(-c2cn(C34CC(N5CCC(O)CC5)(C3)C4)c(C3CC3)n2)cc1OC(F)(F)F [Example 26, 1-(3-(4-(6-amino-5-(trifluoromethoxy)pyridin-3-yl)-2-cyclopropyl-1H-imidazol-1-yl)bicyclo[1.1.1]pentan-1-yl)piperidin-4-ol]",383 nM,7 nM,–,–
"CC(C)c1nc(-c2cnc3ccn(C(C)c4ccccn4)c3c2)cn1C12CC(N3CCOCC3)(C1)C2 (stereo not shown) [Example 28, 4-(3-(2-isopropyl-4-(1-(1-(pyridin-2-yl)ethyl)-1H-pyrrolo[3,2-b]pyridin-6-yl)-1H-imidazol-1-yl)bicyclo[1.1.1]pentan-1-yl)morpholine]",148 nM,2.9 nM,–,–
"N#CC1(c2nc(-c3cnc(N)c(OC(F)(F)F)c3)cn2C23CC(N4CCOCC4)(C2)C3)CC1 [Example 29, 1-(4-(6-amino-5-(trifluoromethoxy)pyridin-3-yl)-1-(3-morpholinobicyclo[1.1.1]pentan-1-yl)-1H-imidazol-2-yl)cyclopropane-1-carbonitrile]",531 nM,20 nM,–,–
"Nc1ncc(-c2cn(C34CC(N5CCOCC5)(C3)C4)c(C3CCOC3)n2)cc1OC(F)(F)F (stereo not shown) [Example 30, 5-(1-(3-morpholinobicyclo[1.1.1]pentan-1-yl)-2-(tetrahydrofuran-3-yl)-1H-imidazol-4-yl)-3-(trifluoromethoxy)pyridin-2-amine]",5110 nM,390 nM,–,–
"Nc1ncc(-c2cn(C34CC(N5CCOCC5)(C3)C4)c(C3COC3)n2)cc1OC(F)(F)F [Example 31, 5-(1-(3-morpholinobicyclo[1.1.1]pentan-1-yl)-2-(oxetan-3-yl)-1H-imidazol-4-yl)-3-(trifluoromethoxy)pyridin-2-amine]",2570 nM,170 nM,–,–
"Nc1ncc(-c2cn(C34CC(N5CCOCC5)(C3)C4)c(C3CCCO3)n2)cc1OC(F)(F)F (stereo not shown) [Example 32, 5-(1-(3-morpholinobicyclo[1.1.1]pentan-1-yl)-2-(tetrahydrofuran-2-yl)-1H-imidazol-4-yl)-3-(trifluoromethoxy)pyridin-2-amine]",518 nM,6.7 nM,–,–
"Nc1ncc(-c2cn(C34CC(C3)C4)c(C(O)C(F)(F)F)n2)cc1OC(F)(F)F (stereo not shown) [Example 63b, 1-(4-(6-amino-5-(trifluoromethoxy)pyridin-3-yl)-1-(bicyclo[1.1.1]pentan-1-yl)-1H-imidazol-2-yl)-2,2,2-trifluoroethan-1-ol]",–,1.6 nM,–,–
"CCCN1CCN(C23CC(n4cc(-c5cnc(N)c(OC(F)(F)F)c5)nc4C(O)C(C)C)(C2)C3)CC1 (stereo not shown) [Example 70, 1-(4-(6-amino-5-(trifluoromethoxy)pyridin-3-yl)-1-(3-(4-propylpiperazin-1-yl)bicyclo[1.1.1]pentan-1-yl)-1H-imidazol-2-yl)-2-methylpropan-1-ol]",923 nM,–,–,–
